# According to patent publication US20200222474A1, “COMPOSITIONS AND METHODS FOR INCREASING PHYTOCHEMICAL BIOAVAILABLITY AND BIOACTIVITY” (North Carolina State University, priority 2017, published 2020):
# System: L. acidophilus NCFM
# Assay: RNA-seq transcriptional analysis of L. acidophilus NCFM growing on plant glycosides
# Type: cell-based, Lactobacillus acidophilus
# [1] = LBA0329 Putative cell division protein, COG D
# [2] = LBA0466 Hypothetical protein, COG C
# [3] = LBA0500 MSM operon repressor, COG K
# [4] = LBA0545 Hypothetical protein, COG L
# [5] = LBA0547 Putative site-specific recombinase, COG L
# [6] = LBA0573 Putative transcriptional regulator, COG K
# [7] = LBA0607 Putative transcriptional regulator, COG K
# [8] = LBA0672 Putative phosphate starvation inducible protein stress related, COG J
# [9] = LBA0753 Multi-drug-type permease, COG GEPR
# [10] = LBA0886 Sugar kinase-putative transcriptional regulator, COG KG
# [11] = LBA0887 Hypothetical protein, COG C
# [12] = LBA0897 Putative Cro-like protein, COG K
# [13] = LBA0910 L-lactate dehydrogenase, COG C
# [14] = LBA1021 Putative transcriptional regulator, COG K
# [15] = LBA1220 Pyridine mercuric reductase, COG C
# [16] = LBA1392 Mucus binding protein precursor Mub, COG J
# [17] = LBA1411 Fumarate reductase flavoprotein subunit, COG CS
# [18] = LBA1436 Glycerol uptake facilitator protein, COG G
# [19] = LBA1457 Galactose-1-epimerase, COG G
# [20] = LBA1458 Galactose-1-phosphate uridylyltransferase, COG G
# [21] = LBA1462 Beta-galactosidase, COG G
# [22] = LBA1463 Lactose permease, COG G
# [23] = LBA1465 Transcription repressor of beta-galactosidasegene, COG K
# [24] = LBA1467 Beta-galactosidase large subunit (lactase), COG G
# [25] = LBA1468 Beta-galactosidase small subunit, COG G
# [26] = LBA1481 D-ribose-binding protein precursor, COG G
# [27] = LBA1482 Ribose ABC transporter, COG G
# [28] = LBA1483 Ribose ABC transporter ATP binding protein, COG G
# [29] = LBA1484 D-ribose pyranase, COG G
# [30] = LBA1494 Lincomycin-resistance protein, COG GEPR
# [31] = LBA1607 Phosphatidylserine decarboxylase precursor, COG I
# [32] = LBA1632 NAD-dependent aldehyde dehydrogenase, COG C
# [33] = LBA1653 Nicotinamide mononucleotide, COG H
# [34] = LBA1684 Putative PTS system IIA component, COG G
# [35] = LBA1689 Maltose-6′-phosphate Oucosidase, COG G
# [36] = LBA1700 Transcriptional regulator-type, COG K
# [37] = LBA1701 Melibiose operon regulatory protein, COG K
# [38] = LBA1705 PTS system IIBC component, COG G
# [39] = LBA1708 Transcriptional antiterminator, COG K
# [40] = LBA1710 Thermostable pullulanase, COG G
# [41] = LBA1812 Alpha-glucosidase II, COG G
# [42] = LBA1870 Maltose phosphorylase, COG G
# [43] = LBA1872 Oligo-1,6-glucosidase, COG G
smiles,measurement,setting,value
OC[C@H]1O[C@@H](O[C@H]2[C@H](O)[C@@H](O)[C@@H](O)O[C@@H]2CO)[C@H](O)[C@@H](O)[C@H]1O [Lac],Log2 differential normalized TPM ratio compared to glucose,"LBA0016 Fructokinase, COG KG",1.2
same,Transcripts per million (rpm),"LBA0016 Fructokinase, COG KG",211.4 rpm
same,Log2 differential normalized TPM ratio compared to glucose,[1],0.4
same,Transcripts per million (rpm),[1],22.1 rpm
same,Log2 differential normalized TPM ratio compared to glucose,[2],1.5
same,Transcripts per million (rpm),[2],270 rpm
same,Log2 differential normalized TPM ratio compared to glucose,[3],1.6
same,Transcripts per million (rpm),[3],162 rpm
same,Log2 differential normalized TPM ratio compared to glucose,[4],2
same,Transcripts per million (rpm),[4],306 rpm
same,Log2 differential normalized TPM ratio compared to glucose,[5],1.7
same,Transcripts per million (rpm),[5],37.9 rpm
same,Log2 differential normalized TPM ratio compared to glucose,[6],0.1
same,Transcripts per million (rpm),[6],98.5 rpm
same,Log2 differential normalized TPM ratio compared to glucose,[7],0.5
same,Transcripts per million (rpm),[7],66.9 rpm
same,Log2 differential normalized TPM ratio compared to glucose,[8],0.8
same,Transcripts per million (rpm),[8],2957.4 rpm
same,Log2 differential normalized TPM ratio compared to glucose,[9],−0.8
same,Transcripts per million (rpm),[9],29.5 rpm
same,Log2 differential normalized TPM ratio compared to glucose,[10],0.2
same,Transcripts per million (rpm),[10],7.7 rpm
same,Log2 differential normalized TPM ratio compared to glucose,[11],1.2
same,Transcripts per million (rpm),[11],133.7 rpm
same,Log2 differential normalized TPM ratio compared to glucose,[12],−2.4
same,Transcripts per million (rpm),[12],0.5 rpm
same,Log2 differential normalized TPM ratio compared to glucose,[13],1
same,Transcripts per million (rpm),[13],257.2 rpm
same,Log2 differential normalized TPM ratio compared to glucose,[14],0.3
same,Transcripts per million (rpm),[14],186.9 rpm
same,Log2 differential normalized TPM ratio compared to glucose,[15],1
same,Transcripts per million (rpm),[15],394.7 rpm
same,Log2 differential normalized TPM ratio compared to glucose,[16],−0.2
same,Transcripts per million (rpm),[16],88.9 rpm
same,Log2 differential normalized TPM ratio compared to glucose,[17],1.1
same,Transcripts per million (rpm),[17],4.7 rpm
same,Log2 differential normalized TPM ratio compared to glucose,[18],3.8
same,Transcripts per million (rpm),[18],37 rpm
same,Log2 differential normalized TPM ratio compared to glucose,[19],5.6
same,Transcripts per million (rpm),[19],732.6 rpm
same,Log2 differential normalized TPM ratio compared to glucose,[20],5.7
same,Transcripts per million (rpm),[20],679.9 rpm
same,Log2 differential normalized TPM ratio compared to glucose,"LBA1459 Galactokinase, COG G",4.6
same,Transcripts per million (rpm),"LBA1459 Galactokinase, COG G",610.1 rpm
same,Log2 differential normalized TPM ratio compared to glucose,[21],6
same,Transcripts per million (rpm),[21],1123.2 rpm
same,Log2 differential normalized TPM ratio compared to glucose,[22],4.7
same,Transcripts per million (rpm),[22],1427.3 rpm
same,Log2 differential normalized TPM ratio compared to glucose,"LBA1464 Transposase, COG L",2.4
same,Transcripts per million (rpm),"LBA1464 Transposase, COG L",956 rpm
same,Log2 differential normalized TPM ratio compared to glucose,[23],3.1
same,Transcripts per million (rpm),[23],485.8 rpm
same,Log2 differential normalized TPM ratio compared to glucose,[24],8.8
same,Transcripts per million (rpm),[24],2333 rpm
same,Log2 differential normalized TPM ratio compared to glucose,[25],6.4
same,Transcripts per million (rpm),[25],1790.7 rpm
same,Log2 differential normalized TPM ratio compared to glucose,[26],0.7
same,Transcripts per million (rpm),[26],8.1 rpm
same,Log2 differential normalized TPM ratio compared to glucose,[27],1
same,Transcripts per million (rpm),[27],7.9 rpm
same,Log2 differential normalized TPM ratio compared to glucose,[28],1
same,Transcripts per million (rpm),[28],6.4 rpm
same,Log2 differential normalized TPM ratio compared to glucose,[29],0.6
same,Transcripts per million (rpm),[29],6.1 rpm
same,Log2 differential normalized TPM ratio compared to glucose,"LBA1485 Ribokinase, COG G",0.7
same,Transcripts per million (rpm),"LBA1485 Ribokinase, COG G",5.2 rpm
same,Log2 differential normalized TPM ratio compared to glucose,[30],0.1
same,Transcripts per million (rpm),[30],5.7 rpm
same,Log2 differential normalized TPM ratio compared to glucose,[31],1
same,Transcripts per million (rpm),[31],41.1 rpm
same,Log2 differential normalized TPM ratio compared to glucose,[32],1.8
same,Transcripts per million (rpm),[32],253.3 rpm
same,Log2 differential normalized TPM ratio compared to glucose,[33],0.6
same,Transcripts per million (rpm),[33],369.4 rpm
same,Log2 differential normalized TPM ratio compared to glucose,[34],1.9
same,Transcripts per million (rpm),[34],48 rpm
same,Log2 differential normalized TPM ratio compared to glucose,[35],1.4
same,Transcripts per million (rpm),[35],9.7 rpm
same,Log2 differential normalized TPM ratio compared to glucose,[36],0.4
same,Transcripts per million (rpm),[36],28.8 rpm
same,Log2 differential normalized TPM ratio compared to glucose,[37],0.8
same,Transcripts per million (rpm),[37],69.9 rpm
same,Log2 differential normalized TPM ratio compared to glucose,[38],0.8
same,Transcripts per million (rpm),[38],6.1 rpm
same,Log2 differential normalized TPM ratio compared to glucose,[39],1.4
same,Transcripts per million (rpm),[39],1.6 rpm
same,Log2 differential normalized TPM ratio compared to glucose,[40],0.4
same,Transcripts per million (rpm),[40],9.9 rpm
same,Log2 differential normalized TPM ratio compared to glucose,"LBA1723 Transposase, COG L",0.2
same,Transcripts per million (rpm),"LBA1723 Transposase, COG L",62 rpm
same,Log2 differential normalized TPM ratio compared to glucose,[41],2
same,Transcripts per million (rpm),[41],68.8 rpm
same,Log2 differential normalized TPM ratio compared to glucose,[42],−1.2
same,Transcripts per million (rpm),[42],46.3 rpm
same,Log2 differential normalized TPM ratio compared to glucose,"LBA1871 Neopullulanase, COG G",0.7
same,Transcripts per million (rpm),"LBA1871 Neopullulanase, COG G",4.5 rpm
same,Log2 differential normalized TPM ratio compared to glucose,[43],0.4
same,Transcripts per million (rpm),[43],4 rpm
same,Log2 differential normalized TPM ratio compared to glucose,"LBA1873 Acetate kinase, COG C",1.4
same,Transcripts per million (rpm),"LBA1873 Acetate kinase, COG C",9 rpm
